Data as given in the supplement of paper PMC10307832.

Legend:
Assay in all cases: relative viability (nuclei count vs DMSO), 5 days (fraction); higher = more cells survive
Trametinib + Luminespib = compound: CC(=O)Nc1cccc(-n2c(=O)n(C3CC3)c(=O)c3c(Nc4ccc(I)cc4F)n(C)c(=O)c(C)c32)c1 [Trametinib] + CCNC(=O)c1noc(-c2cc(C(C)C)c(O)cc2O)c1-c1ccc(CN2CCOCC2)cc1 [Luminespib] (partner 0.01 µM)
In short: (§1)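 Dosing by pin tool came one day after lung cancer cell lines were seeded in 1536-well plates, using either one drug or a fixed anchor-drug dose plus five library-drug doses (not always all listed) in √10 steps. After 5 days, nuclei were counted on 4× images. Relative viability is treated-well nuclei count divided by vehicle-well nuclei count, and values are medians of duplicate plates.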

Trametinib + Olaparib = compound: CC(=O)Nc1cccc(-n2c(=O)n(C3CC3)c(=O)c3c(Nc4ccc(I)cc4F)n(C)c(=O)c(C)c32)c1 [Trametinib] + O=C(c1cc(Cc2n[nH]c(=O)c3ccccc23)ccc1F)N1CCN(C(=O)C2CC2)CC1 [Olaparib] (partner 8 µM)
In short: as §1

[1] = compound: CN1C=C(C2=CC=CC=C21)/C=C\3/C4=C(C=CC=N4)NC3=O + COc1cccc2cc(-c3nc([C@H]4CC[C@H](C(=O)O)CC4)n4ncnc(N)c34)[nH]c12 [OSI-027] (partner 0.5 µM)
In short: as §1

[2] = compound: CN1C=C(C2=CC=CC=C21)/C=C\3/C4=C(C=CC=N4)NC3=O + NC(=O)Nc1cc(-c2cccc(F)c2)sc1C(=O)N[C@H]1CCCNC1 [AZD7762] (partner 0.2 µM)
In short: as §1

Cell Line	relative viability (Trametinib + Luminespib; first compound 0.0025 µM)	relative viability (Trametinib + Luminespib; first compound 0.007906 µM)	relative viability (Trametinib + Luminespib; first compound 0.025 µM)	relative viability (Trametinib + Luminespib; first compound 0.07906 µM)	relative viability (Trametinib + Luminespib; first compound 0.25 µM)	relative viability (Trametinib + Olaparib; first compound 0.0025 µM)	relative viability (Trametinib + Olaparib; first compound 0.007906 µM)	relative viability (Trametinib + Olaparib; first compound 0.025 µM)	relative viability (Trametinib + Olaparib; first compound 0.07906 µM)	relative viability (Trametinib + Olaparib; first compound 0.25 µM)	relative viability ([1]; first compound 0.02 µM)	relative viability ([1]; first compound 0.06325 µM)	relative viability ([1]; first compound 0.6325 µM)	relative viability ([1]; first compound 2 µM)	relative viability ([2]; first compound 0.02 µM)	relative viability ([2]; first compound 0.06325 µM)	relative viability ([2]; first compound 0.6325 µM)	relative viability ([2]; first compound 2 µM)	relative viability ([1]; first compound 0.2 µM)	relative viability ([2]; first compound 0.2 µM)
NCI-H650	0.862	0.828	0.659	0.578	0.375	0.444	0.434	0.568	0.649	0.542	0.628	0.515	0.529	0.506	1.05	0.939	1.2	0.965	–	–
IA-LM	–	–	–	–	–	0.826	0.74	0.244	0.242	0.167	–	–	–	–	–	–	–	–	–	–
A-427	0.805	0.871	0.691	0.661	0.297	0.748	0.828	0.729	0.671	0.524	0.575	0.445	0.549	0.416	0.782	0.753	0.729	0.802	–	–
NCI-H2347	0.513	0.254	0.205	0.208	0.303	0.535	0.383	0.372	0.321	0.316	–	0.347	0.552	0.378	0.778	0.728	0.79	0.83	0.483	0.56
NCI-H1793	0.304	0.159	0.142	0.173	0.17	0.529	0.461	0.361	0.29	0.211	0.283	0.252	0.244	0.197	0.431	0.595	0.387	0.443	0.248	0.316
NCI-H1651	0.866	0.736	0.749	0.791	0.654	0.197	0.178	0.182	0.179	0.161	0.615	0.724	0.66	0.733	0.497	0.455	0.557	0.477	0.65	0.433
HCC-78	–	–	–	–	–	0.774	0.642	0.82	0.808	0.557	0.368	0.335	0.392	0.35	0.502	0.546	0.608	0.348	–	0.6
NCI-H23	0.234	0.185	0.17	0.213	0.221	0.287	0.269	0.269	0.239	0.147	0.497	0.555	0.538	0.517	0.264	0.232	0.252	0.189	0.459	0.167
LOU-NH91	0.348	0.365	0.278	0.305	0.279	0.893	0.829	0.849	0.809	0.483	0.728	0.688	0.63	0.7	0.684	0.641	0.664	0.764	0.696	0.402
LXF-289	0.616	0.642	0.507	0.491	0.351	1.01	0.906	0.803	0.756	0.665	0.857	0.763	0.731	0.745	1.14	1.16	1.21	1.1	0.715	0.975
NCI-H460	0.0314	0.0296	0.0277	0.0263	0.0269	0.43	0.265	0.313	0.217	0.0898	0.81	0.726	0.63	0.676	0.627	0.576	0.677	0.574	0.649	0.263
NCI-H1792	0.399	0.348	0.294	0.286	0.238	0.479	0.415	0.348	0.186	0.244	0.72	0.71	–	0.464	0.943	0.702	0.518	0.693	0.768	0.376
EMC-BAC-2	1.18	1.04	1.04	0.95	0.684	0.638	0.623	0.617	0.69	0.476	0.388	0.384	0.405	0.362	0.963	0.963	1.03	1	0.391	0.91
CAL-12T	0.725	0.29	0.344	0.309	0.239	0.692	0.555	0.522	0.511	0.487	0.628	0.47	0.645	0.53	0.586	0.612	0.643	0.612	0.525	0.623
ChaGo-K-1	0.729	0.515	0.511	0.646	0.464	0.435	0.405	0.405	0.412	0.359	0.56	0.672	0.613	0.609	0.703	0.868	0.848	0.877	0.339	0.723
COR-L 105	0.685	0.587	0.415	0.271	0.344	0.738	0.76	0.498	0.466	0.417	1.01	0.897	0.746	0.724	–	–	–	–	0.591	–
NCI-H1944	0.624	0.489	0.429	0.377	0.22	0.39	0.343	0.341	0.288	0.236	0.433	0.368	0.423	0.351	0.442	0.471	0.464	0.469	–	–
NCI-H2009	1.03	0.623	0.406	0.26	0.315	0.693	0.768	0.508	0.338	0.308	0.684	0.616	0.688	0.642	–	–	–	–	0.668	–
